Data published in article PMC10321576, “Cyclic peptides target the aromatic cage of a PHD-finger reader domain to modulate epigenetic protein function” (Chemical Science, 2023).
Peptide text beside a SMILES is read from it.

Biological target: T1, KDM7B PHD-finger (Homo sapiens, UniProt Q9UPP1)
T1 construct: KDM7B 1-66; His-tag (C); made in house
T1 sequence (Q9UPP1 1-66 isoform Q9UPP1-2): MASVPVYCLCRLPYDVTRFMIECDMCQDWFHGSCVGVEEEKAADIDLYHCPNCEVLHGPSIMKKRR
Assay: Protein NMR 1H-15N HSQC chemical shift perturbation
Format: binding
Excerpt: To better elucidate OC9 interactions at a single residue level, we conducted protein NMR studies using isotopically labelled PHD-finger.[48] Comparison of ^1H–^15N HSQC spectra for isotopically labelled apo and OC9-bound protein (Fig. 4a), independently assigned using ^13C,^15N 3D experiments (Fig. S21, NMR ESI ^†), identified 24 out of 66 protein residues with significant (standard deviation, s > 1) chemical shift perturbation (CSP, Δδ) of their backbone amides (Fig. 4b).
(a) ^1H–^15N HSQC of KDM7B PHD-finger in the apo (black) or bound forms with OC9 (purple, 1 : 1) or H3_1–21K4me3 (green, 3 : 1). (b) ^1H and ^15N chemical shift changes for apo vs. + OC9 were combined and weighted to give chemical shift perturbation (CSP) (Δδ) values. Standard deviation (σ) of Δδ are indicated (>1 pink, >2 purple). (c) TALOS+ predicts similar secondary structure elements in apo and OC9-bound solution protein complexes (light grey) to those found in PDB ID 3KV4 (dark grey). […] (e) Shielded ^1H-NMR signals centred around −0.5 ppm belonging to the OC9 V10 γ-methyl groups are observed in some OC9–PHD complexes, but not in apo protein, or complexes with OC9 V10A and OC9 V10DV. The V10^OC9 γ-methyl signals have NOE interactions (black semi-circles) with the W29^PHD indole, which itself is shielded upon binding of OC9 (indicated by ΔδH values).

- CSP Ala2 (residue Ala2 amide 1H-15N, Free PHD vs PHD+peptide): 0.0068
- CSP Ala2, OC9 vs OC9 L3A (residue Ala2 amide, PHD+OC9 vs PHD+OC9 L3A): 0.0102
- CSP Ala42 (residue Ala42 amide 1H-15N, Free PHD vs PHD+peptide): 0.4335
- CSP Ala42, OC9 vs OC9 L3A (residue Ala42 amide, PHD+OC9 vs PHD+OC9 L3A): 0.0214
- CSP Ala43 (residue Ala43 amide 1H-15N, Free PHD vs PHD+peptide): 0.4214
- CSP Ala43, OC9 vs OC9 L3A (residue Ala43 amide, PHD+OC9 vs PHD+OC9 L3A): 0.0343
- CSP Arg11 (residue Arg11 amide 1H-15N, Free PHD vs PHD+peptide): 0.0169
- CSP Arg11, OC9 vs OC9 L3A (residue Arg11 amide, PHD+OC9 vs PHD+OC9 L3A): 0.0087
- CSP Arg18 (residue Arg18 amide 1H-15N, Free PHD vs PHD+peptide): 0.1337
- CSP Arg18, OC9 vs OC9 L3A (residue Arg18 amide, PHD+OC9 vs PHD+OC9 L3A): 0.0146
- CSP Arg65 (residue Arg65 amide 1H-15N, Free PHD vs PHD+peptide): 0.0010
- CSP Arg65, OC9 vs OC9 L3A (residue Arg65 amide, PHD+OC9 vs PHD+OC9 L3A): 0.0115
- CSP Arg66 (residue Arg66 amide 1H-15N, Free PHD vs PHD+peptide): 0.0045
- CSP Arg66, OC9 vs OC9 L3A (residue Arg66 amide, PHD+OC9 vs PHD+OC9 L3A): 0.0034
- CSP Asn52 (residue Asn52 amide 1H-15N, Free PHD vs PHD+peptide): 0.0619
- CSP Asn52, OC9 vs OC9 L3A (residue Asn52 amide, PHD+OC9 vs PHD+OC9 L3A): 0.0178
- CSP Asp15 (residue Asp15 amide 1H-15N, Free PHD vs PHD+peptide): 0.2511
- CSP Asp15, OC9 vs OC9 L3A (residue Asp15 amide, PHD+OC9 vs PHD+OC9 L3A): 0.0129
- CSP Asp24 (residue Asp24 amide 1H-15N, Free PHD vs PHD+peptide): 0.0765
- CSP Asp24, OC9 vs OC9 L3A (residue Asp24 amide, PHD+OC9 vs PHD+OC9 L3A): 0.0087
- CSP Asp28 (residue Asp28 amide 1H-15N, Free PHD vs PHD+peptide): 0.1850
- CSP Asp28, OC9 vs OC9 L3A (residue Asp28 amide, PHD+OC9 vs PHD+OC9 L3A): 0.0277
- CSP Asp44 (residue Asp44 amide 1H-15N, Free PHD vs PHD+peptide): 0.1299
- CSP Asp44, OC9 vs OC9 L3A (residue Asp44 amide, PHD+OC9 vs PHD+OC9 L3A): 0.0065
- CSP Asp46 (residue Asp46 amide 1H-15N, Free PHD vs PHD+peptide): 0.1937
- CSP Asp46, OC9 vs OC9 L3A (residue Asp46 amide, PHD+OC9 vs PHD+OC9 L3A): 0.0214
- CSP Cys8 (residue Cys8 amide 1H-15N, Free PHD vs PHD+peptide): 0.2230
- CSP Cys8, OC9 vs OC9 L3A (residue Cys8 amide, PHD+OC9 vs PHD+OC9 L3A): 0.0115
- CSP Cys10 (residue Cys10 amide 1H-15N, Free PHD vs PHD+peptide): 0.0457
- CSP Cys10, OC9 vs OC9 L3A (residue Cys10 amide, PHD+OC9 vs PHD+OC9 L3A): 0.0102
- CSP Cys23 (residue Cys23 amide 1H-15N, Free PHD vs PHD+peptide): 0.1510
- CSP Cys23, OC9 vs OC9 L3A (residue Cys23 amide, PHD+OC9 vs PHD+OC9 L3A): 0.0210
- CSP Cys26 (residue Cys26 amide 1H-15N, Free PHD vs PHD+peptide): 0.1657
- CSP Cys26, OC9 vs OC9 L3A (residue Cys26 amide, PHD+OC9 vs PHD+OC9 L3A): 0.0115
- CSP Cys34 (residue Cys34 amide 1H-15N, Free PHD vs PHD+peptide): 0.0274
- CSP Cys34, OC9 vs OC9 L3A (residue Cys34 amide, PHD+OC9 vs PHD+OC9 L3A): 0.0065
- CSP Cys50 (residue Cys50 amide 1H-15N, Free PHD vs PHD+peptide): 0.0600
- CSP Cys50, OC9 vs OC9 L3A (residue Cys50 amide, PHD+OC9 vs PHD+OC9 L3A): 0.0129
- CSP Cys53 (residue Cys53 amide 1H-15N, Free PHD vs PHD+peptide): 0.0573
- CSP Cys53, OC9 vs OC9 L3A (residue Cys53 amide, PHD+OC9 vs PHD+OC9 L3A): 0.0065
- CSP Gln27 (residue Gln27 amide 1H-15N, Free PHD vs PHD+peptide): 0.1418
- CSP Gln27, OC9 vs OC9 L3A (residue Gln27 amide, PHD+OC9 vs PHD+OC9 L3A): 0.0110
- CSP Glu22 (residue Glu22 amide 1H-15N, Free PHD vs PHD+peptide): 0.1432
- CSP Glu22, OC9 vs OC9 L3A (residue Glu22 amide, PHD+OC9 vs PHD+OC9 L3A): 0.0223
- CSP Glu38 (residue Glu38 amide 1H-15N, Free PHD vs PHD+peptide): 0.1564
- CSP Glu38, OC9 vs OC9 L3A (residue Glu38 amide, PHD+OC9 vs PHD+OC9 L3A): 0.0388
- CSP Glu39 (residue Glu39 amide 1H-15N, Free PHD vs PHD+peptide): 0.2246
- CSP Glu39, OC9 vs OC9 L3A (residue Glu39 amide, PHD+OC9 vs PHD+OC9 L3A): 0.0231
- CSP Glu40 (residue Glu40 amide 1H-15N, Free PHD vs PHD+peptide): 0.1065
- CSP Glu40, OC9 vs OC9 L3A (residue Glu40 amide, PHD+OC9 vs PHD+OC9 L3A): 0.0110
- CSP Glu54 (residue Glu54 amide 1H-15N, Free PHD vs PHD+peptide): 0.0548
- CSP Glu54, OC9 vs OC9 L3A (residue Glu54 amide, PHD+OC9 vs PHD+OC9 L3A): 0.0034
- CSP Gly32 (residue Gly32 amide 1H-15N, Free PHD vs PHD+peptide): 0.1585
- CSP Gly32, OC9 vs OC9 L3A (residue Gly32 amide, PHD+OC9 vs PHD+OC9 L3A): 0.0220
- CSP Gly36 (residue Gly36 amide 1H-15N, Free PHD vs PHD+peptide): 0.1019
- CSP Gly36, OC9 vs OC9 L3A (residue Gly36 amide, PHD+OC9 vs PHD+OC9 L3A): 0.0055
- CSP Gly58 (residue Gly58 amide 1H-15N, Free PHD vs PHD+peptide): 0.0491
- CSP Gly58, OC9 vs OC9 L3A (residue Gly58 amide, PHD+OC9 vs PHD+OC9 L3A): 0.0055
- CSP His31 (residue His31 amide 1H-15N, Free PHD vs PHD+peptide): 0.2104
- CSP His31, OC9 vs OC9 L3A (residue His31 amide, PHD+OC9 vs PHD+OC9 L3A): 0.0065
- CSP His49 (residue His49 amide 1H-15N, Free PHD vs PHD+peptide): 0.0983
Structure (SMILES): CC(C)[C@@H]1NC(=O)[C@H](CO)NC(=O)[C@@H]2CCCN2C(=O)[C@H](Cc2ccc(O)cc2)NC(=O)[C@@H]2CCCN2C(=O)[C@H](Cc2c[nH]cn2)NC(=O)[C@H]([C@@H](C)O)NC(=O)[C@H](C)NC(=O)[C@H](Cc2ccc(O)cc2)NC(=O)[C@H](Cc2ccc(O)cc2)NC(=O)CSC[C@@H](C(N)=O)NC(=O)[C@H]([C@@H](C)O)NC(=O)[C@H](CCCNC(=N)N)NC(=O)[C@H](Cc2ccccc2)NC1=O [L3A] (HELM PEPTIDE1{[O=C(C[*:3])[*:2]].Y.Y.A.T.H.P.Y.P.S.V.F.R.T.C.[am]}$PEPTIDE1,PEPTIDE1,1:R3-15:R3$$$V2.0; C-terminus assumed)
